Test [1] deals with T1, recombinant human HDAC-1 enzyme (rHDAC-1) (Homo sapiens, UniProt Q13547).
T1 construct: made in house; host or cells: Baculovirus insect cell expression system
The test is described as follows: Histone deacetylase inhibition, recombinant human HDAC-1. Type of test: biochemical. The note with it: cloned recombinant human HDAC-1, Baculovirus insect cell expression; read-out: rHDAC-1 IC50. The method, boiled down:
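Recombinant human HDAC-1 or pooled HDACs from H446 nuclear extracts were preincubated with compounds for 30 min at 4 °C before the reaction. Released [3H]-acetic acid was extracted with ethyl acetate after acid stop and counted by scintillation. IC50 was the concentration giving half-maximal inhibition from dose-response curves.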

For test [2], the system named is acetylated histone H-4 in T24 human bladder cancer cells. Description: Histone H4 acetylation in whole cells by immunoblots. Type of test: cell-based. On the procedure:
T24 human bladder cancer cells growing in culture were incubated with HDAC inhibitors for 16 hours. Histones were extracted from the cells after the culture period as described by M. Yoshida et al. (J. Biol. Chem. 265(28): 17174-17179 (1990)). 20 μg of total histone protein was loaded onto SDS/PAGE and transferred to nitrocellulose membranes. Membranes were probed with polyclonal antibodies specific for acetylated histone H-4 (Upstate Biotech Inc.), followed by horse radish peroxidase conjugated secondary antibodies (Sigma). Enhanced Chemiluminescence (ECL) (Amersham) detection was performed using Kodak films (Eastman Kodak). Acetylated H-4 signal was quantified by densitometry.
Background: A western blot detects proteins with antibodies after separation by electrophoresis.

The subject of test [3] is histone deacetylase enzyme in nuclear extracts from H446 cells (pooled HDACs). The test is described as follows: Histone deacetylase inhibition, H446 nuclear extracts (pooled HDACs). Type of test: biochemical, human. The note with it: for pIC50: H446 nuclear extract, [3H]-acetylated histone substrate; for pooled HDACs percent inhibition: percent inhibition at 20 μM (footnote). The method, then: HDAC inhibitors were screened against histone deacetylase enzyme in nuclear extracts prepared from the human small cell lung cancer cell line H446 (ATTC HTB-171) and against a cloned recombinant human HDAC-1 enzyme expressed and purified from a Baculovirus insect cell expression system.
For deacetylase assays, 20,000 cpm of the [^3H]-metabolically labeled acetylated histone substrate (M. Yoshida et al., J. Biol. Chem. 265(28): 17174-17179 (1990)) was incubated with 30 μg of H446 nuclear extract or an equivalent amount of the cloned recombinant hHDAC-1 for 10 minutes at 37° C. The reaction was stopped by adding acetic acid (0.04 M, final concentration) and HCl (250 mM, final concentration). The mixture was extracted with ethyl acetate and the released [^3H]-acetic acid was quantified by scintillation counting. For inhibition studies, the enzyme was preincubated with compounds at 4° C. for 30 minutes prior to initiation of the enzymatic assay. IC50 values for HDAC enzyme inhibitors were determined by performing dose response curves with individual compounds and determining the concentration of inhibitor producing fifty percent of the maximal inhibition.

For test [4], the system named is A549 human lung carcinoma cells. Description: Antineoplastic effect on A549 tumors in nude mice. It is filed as in vivo, BALB/c nude mice. The conditions noted are these: A549 xenograft, daily injection about 10 to about 50 mg/kg, 21 days. On the procedure:
Eight to ten week old female BALB/c nude mice (Taconic Labs, Great Barrington, N.Y.) were injected subcutaneously in the flank area with 2×10^6 preconditioned A549 human lung carcinoma cells. Preconditioning of these cells was accomplished by a minimum of three consecutive tumor transplantations in the same strain of nude mice. Subsequently, tumor fragments of approximately 30 mgs were excised and implanted subcutaneously in mice, in the left flank area, under isoflurane anesthesia (Abbott Labs, Geneva, Switzerland). When the tumors reached a mean volume of 100 mm^3, the mice were treated intravenously, subcutaneously or intraperitoneally, by daily injection of a solution of the inhibitor in an appropriate vehicle such as PBS, DMSO/water, or Tween 80/water, at a dose from about 10 mg/kg to about 50 mg/kg, for 21 days. Tumor volume was calculated every second day post infusion according to standard methods (e.g., Meyer et al., Int. J. Cancer 43: 851-856 (1989)).

The test system of test [5] is cell growth. The conditions noted are these: Finnin et al. 1999; cited from earlier work.
In test [6] the test system is tumors. The note with it: Finnin et al. 1999; cited from earlier work.
The subject of test [7] is HDAC. The note with it: Richon et al. 1998; cited from earlier work.
Test [8] has as its system rat fibroblasts. The note with it: Yoshida and Beppu 1988; cited from earlier work.
[9] abbreviates: T-24, read-out: EC50, concentration effective for reducing the acetylated H-4 signal by 50%, T24 cells, 16 hours incubation, immunoblot densitometry.

SMILES strings stand for the structures. pEC50, pIC50: −log10 of the molar value. Where two headings read alike, the source gives them in different places.

T1 sequence (Q13547 whole entry): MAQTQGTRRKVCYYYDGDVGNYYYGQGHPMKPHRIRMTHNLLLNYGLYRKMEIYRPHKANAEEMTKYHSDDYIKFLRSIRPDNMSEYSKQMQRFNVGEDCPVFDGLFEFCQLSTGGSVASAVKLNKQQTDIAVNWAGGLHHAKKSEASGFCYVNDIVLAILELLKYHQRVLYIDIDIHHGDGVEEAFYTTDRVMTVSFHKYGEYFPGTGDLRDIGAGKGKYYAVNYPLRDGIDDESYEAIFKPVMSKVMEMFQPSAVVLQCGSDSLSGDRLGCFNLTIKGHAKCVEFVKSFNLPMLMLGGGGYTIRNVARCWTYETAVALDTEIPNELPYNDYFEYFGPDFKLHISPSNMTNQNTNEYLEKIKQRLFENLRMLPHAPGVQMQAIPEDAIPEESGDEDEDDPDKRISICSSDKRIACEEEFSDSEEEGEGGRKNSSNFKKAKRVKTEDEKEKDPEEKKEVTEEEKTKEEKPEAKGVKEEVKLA

For the compound `O=C(CCCCCCC(=O)c1ccc(-c2ccccc2)nc1)NO` [Compound 145, N-Hydroxy-7-[(5-(2-phenyl)pyridyl)carbonyl]heptanamide], the pIC50 (commonly −log10 of the IC50, conventionally taken in molar units) in test [1] is 8.10. The pEC50 in test [2] (setting [9]) is 5.00.
As for `Nc1ccccc1NC(=O)CCCCCCC(=O)c1ccc(-c2ccccc2)nc1` [Compound 146, N-(2-Aminophenyl)-7-[(5-(2-phenyl)pyridyl)carbonyl]heptanamide], the pIC50 in test [1] was 5.70. Besides, the pEC50 in test [2] (setting [9]) is 5.30.
For `O=C(CCCCCCC(=O)c1ccc(N2CCN(c3ccccc3)CC2)cc1)NO` [Compound 138g, N-Hydroxy-7-[4-(1-(4-phenylpiperazinyl))benzoyl]heptanamide], the results for the pIC50 in test [3] and in test [1] were 7.29 and 8.22, respectively. In test [2] (setting [9]), the pEC50 is 5.30.
Consider `Nc1ccccc1NC(=O)CCCCCCC(=O)c1ccc(-c2ccccc2)cc1` [Compound 77, N-(2-Aminophenyl)-7-[(4-biphenyl)carbonyl]heptanamide], for which the “pooled HDACs percent inhibition” value in test [3] is 11%. Besides, the pIC50 in test [1] is 5.72. In addition, the pEC50 in test [2] (setting [9]) is 5.00.
`Nc1ccccc1NC(=O)/C=C/C=C/CCC(=O)c1ccc(-c2ccccc2)cc1` [Compound 204, (E,E)-N-(2-Aminophenyl)-7-[(4-biphenyl)carbonyl]-2,4-heptadienamide]: the pIC50 in test [1] is 5.30. The pEC50 in test [2] (setting [9]) is 4.82.
For `Cc1ccc2c(c1)C(=O)N(CCCCCC(=O)Nc1ccccc1N)C2=O` [Compound 243d, N-(2-Aminophenyl)-6-(5-methyl-N-phthaloyl)hexanamide], the pIC50 in test [1] was 5.52. Further, the pEC50 in test [2] (setting [9]) is 5.52.
With `COC(C/C=C/C=C/C(=O)Nc1ccccc1N)c1ccc(N(C)C)cc1` (centres unmarked) [Compound 20, N-(2-Aminophenyl)-7-methoxy-7-[4-(N,N-dimethylamino)phenyl]-2,4-heptadienamide], the pIC50 in test [3] was under 4.70; in test [1], 5.52. Also, the pEC50 in test [2] (setting [9]) was 5.30.
Take `COc1ccc(-c2ccc(C(=O)CCCCCCC(=O)NO)cc2)cc1` [Compound 120, N-Hydroxy-7-[4-(4-methoxyphenyl)benzoyl]heptanamide]: the “pooled HDACs percent inhibition” value in test [3] amounted to 83%. Moreover, the pIC50 in test [1] is 8.70. Also, the pEC50 in test [2] (setting [9]) was 5.00.
`Nc1ccccc1NC(=O)CCCCCN1C(=O)c2cccc3c(CN4CCCCC4)c(O)cc(c23)C1=O` [Compound 251c, N-(2-Aminophenyl)-6-[2-(5-hydroxy-1,3-dioxo-6-(1-methylpiperidynyl)-1H,3H-benzo[de]isoquinolinyl)]-hexanamide]: the pIC50 in test [1] is 5.70. The pEC50 in test [2] (setting [9]) is 6.00.
On the same counts, the results for `COc1ccc(-c2ccc(C(=O)CCCCCCC(=O)Nc3ccccc3N)cn2)cc1OC` [Compound 151, N-(2-Aminophenyl)-7-[5-(2-(3,4-dimethoxyphenyl)pyridyl)carbonyl]heptanamide] are 5.40 and 5.52.
In the case of `Nc1ccccc1NC(=O)CCCCCCC(=NO)c1cccc(-c2ccccc2)c1` (mixture of isomers) [Compound 134, N-(2-Aminophenyl)-8-(E)-oximino-8-(3-biphenyl)octanamide], the pIC50 in test [1] was 6.00. In addition, in test [2] (setting [9]), the pEC50 was 5.00.
On to `CC(/C=C/C(=O)Nc1ccccc1N)=C\C(C)Cc1ccc(N(C)C)cc1` (centres unmarked) [Compound 39], for which the pIC50 in test [3] was under 4.70; in test [1], 5.15. Besides, the pEC50 in test [2] (setting [9]) is 5.00.
For the compound `COC(c1ccc(N(C)C)cc1)C(C)/C=C(C)/C=C/C(=O)Nc1ccccc1N` (centres unmarked) [Compound 34, N-(2-Aminophenyl)-4,6-dimethyl-7-methoxy-7-[4-(N,N-dimethylamino)phenyl]-2,4-heptadienamide], the negative-log IC50 (pIC50) in test [3] was under 4.00; in test [1] it was 5.15. The pEC50 in test [2] (setting [9]) is 5.30. The “tumor weight and volume relative to saline controls” value in test [4] was “significant reduction in tumor weight and volume”.
As to `O=C(CCCCCCC(=O)Nc1ccccc1)NO` [SAHA, suberoylanilide hydroxamic acid], in test [5], the cell growth result is recorded as “inhibit cell growth” and the terminal differentiation entry is “induce terminal differentiation”. In addition, the “formation of tumors in mice” value in test [6] was “prevent the formation of tumors in mice”. For the same compound, in test [7], the HDAC activity result is recorded as “inhibited”.
For the compound `CC(/C=C/C(=O)NO)=C\[C@@H](C)C(=O)c1ccc(N(C)C)cc1` [TSA, trichostatin A], in test [8], the cell cycle arrest entry was “causes arrest of rat fibroblasts at the G1 and G2 phases of the cell cycle”. For the same compound, in test [5], the cell growth result is on record as “inhibit cell growth” and the terminal differentiation entry is “induce terminal differentiation”. Moreover, in test [6], the “formation of tumors in mice” value is listed as “prevent the formation of tumors in mice”. Further, the HDAC activity result in test [7] is recorded as “inhibited”.
For the compound `O=C(/C=C/C=C/CCC(=O)c1ccc(-c2ccccc2)cc1)NO` [Compound 205, (E,E)-N-Hydroxy-7-[(4-biphenyl)carbonyl]-2,4-heptadienamide], in test [1], the pIC50 is 7.40. Further, the pEC50 in test [2] (setting [9]) is 5.52.
For `COc1ccc(C(C/C=C/C=C/C(=O)Nc2ccccc2N)OC)cc1` (centres unmarked) [Compound 18, N-(2-Aminophenyl)-7-methoxy-7-(4-methoxyphenyl)-2,4-heptadienamide], the figures for the pIC50 in test [3] and in test [1] were under 4.00 and 6.00, respectively. The pEC50 in test [2] (setting [9]) was 5.00.
In the case of `CC(/C=C/C(=O)Nc1ccccc1N)=C\C(C)C(=O)c1ccc(N(C)C)cc1` (centres unmarked) [Compound 35, N-(2-Aminophenyl)-4-methyl-6-[4-(N,N-dimethylamino)benzoyl]-2,4-heptadienamide], the pIC50 was under 4.00 in test [3] and 5.70 in test [1]. The pEC50 in test [2] (setting [9]) was 5.30.
`O=C(CCCCCCC(=NO)c1ccccc1)NO` [Compound 51a, N-Hydroxy-8-oximino-8-phenyloctanamide]: the pIC50 is 6.46 in test [3] and 7.00 in test [1].
Consider `Nc1ccccc1NC(=O)CCCCCCC(=O)c1ccc(-c2cccnc2)cc1` [Compound 127, N-(2-Aminophenyl)-7-[4-(3-pyridyl)benzoyl]heptanamide], for which, in test [3], the “pooled HDACs percent inhibition” value is on record as 0%. For the same compound, the pIC50 in test [1] was 4.99.
On the same counts, the results for `O=C(CCCCCCC(=O)c1ccccc1)Nc1cccnc1` [Compound 252] are 0% and under 4.70.
For `O=C(CCCCCCOc1ccc(-c2ccccc2)cc1)NO` [Compound 235, N-Hydroxy-7-(4-biphenyloxy)heptanamide], the pEC50 in test [2] (T-24, 16 h, read-out: EC50, concentration effective for reducing the acetylated H-4 signal by 50%) is 5.30.
For `COc1ccc(C(C/C=C/C=C/C(=O)NO)OC)cc1` (centres unmarked) [Compound 6, N-Hydroxy-7-methoxy-7-(4-methoxyphenyl)-2,4-heptadienamide], the pIC50 in test [3] was 5.52; in test [1], 6.60.

These data come from patent US7288567B2, “Inhibitors of histone deacetylase” (Methylgene Inc., priority 2000, dated 2007).
